The values that follow come from PMC9136610 (Acta Pharmaceutica Sinica. B, 2022).

One data set is described as follows: in vivo. The following applies: female, MMTV-PyMT (FVB/NJ background), mouse; for Kp: AUCtissue/AUCplasma.
The conditions of data set [1]: ref Drugbank database (go.drugbank.com); cited from earlier work.
The test system of a further data set is plasma protein. The following applies: cited from earlier work; for Protein binding: ref Drugbank database (go.drugbank.com).
The conditions of data set [2]: for AUC in tumor tissues, fold higher than in the normal fatpad: i.v. injection.
A further data set relates to albumin. The following applies: cited from earlier work.

Each structure is given as a SMILES string.

In the case of `CC/C(=C(\c1ccc(O)cc1)c1ccc(OCCN(C)C)cc1)c1ccccc1` [Afimoxifene, afimoxifene], in “in vivo” (po, 5 mg/kg), the AUC (commonly concentration integrated over time) was determined as 114 ng·h/mL and the bioavailability (commonly dose-corrected exposure relative to a reference, in per cent) came out at 32.4%. Further, in the data set “in vivo” (po, Kpbone, bone), the Kp (as a rule, tissue or fluid exposure divided by exposure in the circulation) stood at 5. Further, in “in vivo” (po, Kpfatpad, fatpad), the Kp is 10.9. This compound showed a partition ratio (Kp) in the data set “in vivo” (po, Kptumor, tumor) of 25.3. Further, in data set [1], the LogP (usually the decadic logarithm of the partition coefficient of the neutral form, usually between octanol and water) was 5.44; the LogS is given as −5.1. Further, the Protein binding in the data set on plasma protein is recorded as 99%. The same compound registered an AUCtumor (oral 5 mg/kg, tumor) of 2886.5. Moreover, the “tissue selectivity compared to tamoxifen and toremifene, in words” value in data set [2] (i.v. 2.5 mg/kg) is “higher lung but lower pancreas selectivity”. In addition, in data set [2] (i.v. 2.5 mg/kg, AUC ratio), the “exposure difference in the kidney, afimoxifene vs droloxifene” value came out at 4.8 fold and the “exposure difference in the liver, afimoxifene vs droloxifene” value was found to be 6.8 fold. For the same compound, the “AUC in tumor tissues, fold higher than in the normal fatpad” value in data set [2] is given as 2.2 fold.

As for `CC/C(=C(/c1ccc(OCCN(C)C)cc1)c1cccc(O)c1)c1ccccc1` [Droloxifene], in “in vivo” (po, 5 mg/kg), the AUC stood at 127 ng·h/mL and the bioavailability worked out at 45.3%. For the same compound, in the data set “in vivo” (po, Kpbone, bone), the Kp is 7.7. Besides, the concentration ratio (Kp) in “in vivo” (po, Kpfatpad, fatpad) was found to be 9.5. The Kp in “in vivo” (po, Kptumor, tumor) was determined as 25.6. In addition, in data set [1], the LogP is recorded as 5.43; the LogS is listed as −5.1; the pKa (in general, the negative logarithm of the acid dissociation constant) is recorded as 8.49. Besides, the AUCtumor (oral 5 mg/kg, tumor) is on record as 3238.8. Also, in data set [2] (i.v. 2.5 mg/kg), the “tissue selectivity compared to tamoxifen and toremifene, in words” value is “higher lung but lower pancreas selectivity”. Further, the “AUC in tumor tissues, fold higher than in the normal fatpad” value in data set [2] stood at 3.1 fold.

`Cc1cc(-c2ccc(/N=N/c3ccc4c(S(=O)(=O)O)cc(S(=O)(=O)O)c(N)c4c3O)c(C)c2)ccc1/N=N/c1ccc2c(S(=O)(=O)O)cc(S(=O)(=O)O)c(N)c2c1O` [Evan blue]: the “plasma protein binding level” value with plasma protein is 68%.

`Oc1ccc2c(c1)CC[C@H](c1ccccc1)[C@@H]2c1ccc(OCCN2CCCC2)cc1` [Lasofoxifene, lasofoxifene] registered a bioavailability in “in vivo” of 26.9%. In addition, the exposure (AUC) in the data set “in vivo” (po, 5 mg/kg) was 75.4 ng·h/mL. For the same compound, the Kp in “in vivo” (po, Kpbone, bone) turned out to be 3.5; in the data set “in vivo” (po, Kpfatpad, fatpad), 5.7; in the data set “in vivo” (po, Kptumor, tumor), 13.2. In addition, the LogP in data set [1] is given as 6.36. Further, the LogS in data set [1] is recorded as −6. Further, in data set [1], the pKa was 8.98. In addition, in the data set with plasma protein, the Protein binding was 99%. Besides, the AUCtumor (oral 5 mg/kg, tumor) stood at 996.

In “in vivo”, `COc1ccc2c(c1)CCC(c1ccccc1)=C2c1ccc(OCCN2CCCC2)cc1` [Nafoxidine, nafoxidine] showed a bioavailability of 83.4%. This compound had an AUC in the data set “in vivo” (po, 5 mg/kg) of 969 ng·h/mL. This compound also returned a partition ratio (Kp) in “in vivo” (po, Kpbone, bone) of 1.4. In addition, the Kp in the data set “in vivo” (po, Kpfatpad, fatpad) came out at 4.5. Moreover, the Kp in “in vivo” (po, Kptumor, tumor) was 6.3. In addition, in data set [1], the LogP is listed as 6.36, the LogS is given as −5.91 and the pKa was 8.95. The compound further displayed an AUCtumor (oral 5 mg/kg, tumor) of 6118.7. For the same compound, the “oral bioavailability, fold higher than lasofoxifene” value (vs lasofoxifene) is reported as 3 fold. For the same compound, the “tissue selectivity compared to lasofoxifene, in words” value in data set [2] (after i.v and p.o. administration) was “higher selectivity in stomach, liver, fat, fatpad, spleen, kidney, but lower selectivity in heart, tumor and pancreas”. In data set [2] (i.v. 2.5 mg/kg), the “exposure in the fat, fold higher than lasofoxifene” value is 8 fold and the “exposure in the spleen, fold higher than lasofoxifene” value is 6 fold.

`O=C(c1ccc(OCCN2CCCCC2)cc1)c1c(-c2ccc(O)cc2)sc2cc(O)ccc12` [Raloxifene, raloxifene]: the exposure (AUC) in the data set “in vivo” (po, 5 mg/kg) is 114 ng·h/mL. This compound also had an AUCtumor (oral 5 mg/kg, tumor) of 929.4.

In the data set “in vivo” (po, 5 mg/kg), `CC/C(=C(\c1ccccc1)c1ccc(OCCN(C)C)cc1)c1ccccc1` [Tamoxifen] had an AUC of 102 ng·h/mL and a bioavailability of 39.4%. The Protein binding in the data set on plasma protein is on record as 98%. The AUCtumor (oral 5 mg/kg, tumor) came out at 3621.3. In addition, the “exposure difference in the fat, intestine and skin, tamoxifen vs toremifene” value in data set [2] (i.v. 2.5 mg/kg, AUC ratio) was found to be 2 fold.

On to `CN(C)CCOc1ccc(/C(=C(/CCCl)c2ccccc2)c2ccccc2)cc1` [Toremifene, toremifene], for which, in “in vivo” (po, 5 mg/kg), the AUC was found to be 64.9 ng·h/mL and the bioavailability was found to be 18.5%. Further, the Kp in the data set “in vivo” (po, Kpbone, bone) was 5.1. The same compound registered a partition ratio (Kp) in the data set “in vivo” (po, Kpfatpad, fatpad) of 20.9. In the data set “in vivo” (po, Kptumor, tumor), this compound came in with a concentration ratio (Kp) of 21.5. Besides, in data set [1], the LogP is recorded as 5.65, the LogS is recorded as −6 and the pKa is 8.76. The Protein binding with plasma protein is given as 92%. The AUCtumor (oral 5 mg/kg, tumor) worked out at 1393. Moreover, the “tumor drug concentration, fold higher than raloxifene” value (oral 5 mg/kg, tumor, vs raloxifene) is recorded as 1.5 fold. For the setting “toremifene 60 mg QD (3-fold AUC) vs tamoxifen 20 mg QD”, the “drug exposure in the lung, fold increase to tamoxifen (20 mg QD)” value was found to be 2 fold.

As to `COc1cccc2c1C(=O)c1c(O)c3c(c(O)c1C2=O)C[C@@](O)(C(=O)CO)C[C@@H]3O[C@H]1C[C@H](N)[C@H](O)[C@H](C)O1` [doxorubicin], in the data set on albumin, the “binding affinity to albumin” value was 7500 mol/L.
